In US20260258446A1, “SMALL MOLECULE ENHANCERS FOR ADENO-[…] PRODUCTION” (priority 2023, published 2026):
Counter-ions that a name gives are not always drawn.

Key:
[1] = test system: AAV8 production in Viral Production 2.0 cells (293-VP 2.0); assay: AAV8 production by transient transfection, genome titer by dPCR; format: cell-based, human
Description: Candidate small molecules were selected via literature-based searches and encompassed general classes of epigenetic modifiers, PI3K inhibitors, cell cycle modulators, innate immune activators/inhibitors, proteosome inhibitors, kinase inhibitors, free fatty acids, endoplasmic reticulum stress inducers/inhibitors, and autophagy activators/inhibitors. Various candidate small molecule were analyzed in AAV2 or AAV8 production. The initial test concentrations of each small molecule were determined by previous uses of the molecules found in the literature for a variety of applications. For each candidate small molecule, cells were triple transfected with three plasmids encoding the rep/cap genes, gene of interest flanked by […] terminal repeats (ITR) and adenovirus helper molecules. The rep/cap plasmid encoded either AAV2 or AAV8 capsids. The plasmid DNA (pDNA) was combined with the TransIT-VirusGEN® transfection reagent and added to 293-derived suspension cells. The cells were then immediately treated with the small molecule. AAV production occurred over the course of 72 hours, after which virus was harvested. Genomes were assessed by digital PCR (dPCR), and capsids by a specific ELISA or homogeneous based luciferase assay utilizing capsid specific antibodies. The percentage of full capsids was calculated by dividing the total number of genomes by the total number of capsids. A small molecule was considered a successful enhancer of AAV production if it increased AAV as measured by viral genomes 1.5-fold over an untreated control and was not detrimental to the percentage of full capsids, or if it increased the percentage of full capsids 1.5-fold over an untreated control and was not detrimental to the total number of produced AAV as measured by viral genomes. The experimental design may identify small molecules that enhance AAV production.
Viral Production Cells 2.0 (293-VP 2.0; Thermo Fisher Cat. No. A49784) were maintained in Viral Production Media (VPM; Thermo Fisher Cat. No. A4817901) supplemented with 4 mM GlutaMAX™ (Thermo Fisher Cat. No. 35050061). Expi293F™ Cells (Thermo Fisher Cat. No. A14527) were maintained in Expi293™ Expression Medium (Thermo Fisher Cat. No. A1435101). Both cell lines were maintained at the supplier recommended 8% CO2 and 37° C. on a 2.5 cm orbital shaker at 125 rpm.
The day before transfection, cells were passaged to ensure the cells were actively dividing and would reach a density of 4.0-5.0×10^6 cells/mL the day of transfection. The day of transfection, cells were seeded in 6-well non-tissue culture treated plates (Corning, Cat. No. 351146) at a density of 3.0×10^6 cells/mL. A 1 mg/mL DNA solution composed of a 1:1:1 plasmid concentration ratio of a transfer vector (Agilent, Cat. No. 240074-51), an AAV2 RepCap Vector (Aldevron, Cat. No. pALD-AAV2) or an AAV5 RepCap Vector (Aldevron, Cat. No. pALD-AAV5) or an AAV8 RepCap vector (Genemedi, Cat. No. P-RC09) or an AAV9 RepCap vector (Genemedi, Cat. No. p-RC13), and a helper vector (Agilent Cat. No. 240071-54) was formed in water. For each milliliter of culture, 3 μL of TransIT-VirusGEN® (Mirus Bio LLC, Cat. No. MIR 6700) and 2 μg of DNA were added to a final volume of 100 μL Phosphate-buffered saline (PBS; Corning, Cat. No. 21-040-CV) for a final transfection reagent to DNA ratio of 1.5:1. This mixture was incubated at room temperature for 30 minutes to allow transfection complexes to form, after which 100 μL was added per milliliter of culture for a final complexation volume of 10%. In some instances, cells were transfected with 1 μL FectoVIR®-AAV (Polyplus, Cat. No. 101000044) per million cells and 1 μg DNA per million cells for a final transfection reagent to DNA ratio of 1:1, and a final complexation volume of 5%. In some instances, cells were transfected with 1 μL PEIPro® (Polyplus, Cat. No. 101000017) per million cells and 1 μg DNA per million cells for a final transfection reagent to DNA ratio of 1:1, and a final complexation volume of 10%. […]

[2] = test system: AAV2 or AAV8 production in 293-derived suspension cells; assay: cells; format: cell-based, human
Description: Various candidate small molecule were analyzed in AAV2 or AAV8 production. […] For each candidate small molecule, cells were triple transfected with three plasmids encoding the rep/cap genes, gene of interest flanked by internal terminal repeats (ITR) and adenovirus helper molecules. The rep/cap plasmid encoded either AAV2 or AAV8 capsids. The plasmid DNA (pDNA) was combined with the TransIT-VirusGEN® transfection reagent and added to 293-derived suspension cells. The cells were then immediately treated with the small molecule. AAV production occurred over the course of 72 hours, after which virus was harvested. Genomes were assessed by digital PCR (dPCR), and capsids by a specific ELISA or homogeneous based luciferase assay utilizing capsid specific antibodies. The percentage of full capsids was calculated by dividing the total number of genomes by the total number of capsids. A small molecule was considered a successful enhancer of AAV production if it increased AAV as measured by viral genomes 1.5-fold over an untreated control and was not detrimental to the percentage of full capsids, or if it increased the percentage of full capsids 1.5-fold over an untreated control and was not detrimental to the total number of produced AAV as measured by viral genomes. […]

[3] = from about 0.5 μM to about 40 μM

## CC[C@@H]1C(=O)N(C)c2cnc(Nc3ccc(C(=O)NC4CCN(C)CC4)cc3OC)nc2N1C1CCCC1 [Compound A, (R)-4-((8-cyclopentyl-7-ethyl-5-methyl-6-oxo-5,6,7,8-tetrahydropteridin-2-yl)amino)-3-methoxy-N-(1-methylpiperidin-4-yl)benzamide]
[1]; from about 0.025 μM to about 1 μM
  Successful enhancer of AAV8 production (genomes or % full capsids 1.5-fold over untreated control): Successful enhancers

## CN[C@H]1CCc2cc(OC)c(OC)c(OC)c2-c2ccc(OC)c(=O)cc21 [Compound B, (S)-1,2,3,10-tetramethoxy-7-(methylamino)-6,7-dihydrobenzo[a]heptalen-9 (5H)-one]
[1]; from about 0.0673 μM to about 0.2019 μM
  Successful enhancer of AAV8 production (genomes or % full capsids 1.5-fold over untreated control): Successful enhancers

## CC(=O)O[C@@]12CO[C@@H]1C[C@H](O)[C@@]1(C)C(=O)[C@H](O)C3=C(C)[C@@H](OC(=O)[C@H](O)[C@@H](NC(=O)OC(C)(C)C)c4ccccc4)C[C@@](O)([C@@H](OC(=O)c4ccccc4)[C@H]21)C3(C)C [Compound C, [(1S,2S,3R,4S,7R,9S, 10S, 12R, 15S)-4-acetyloxy-1,9,12-trihydroxy-15-[(2R,3S)-2-hydroxy-3-[(2-methylpropan-2-yl)oxycarbonylamino]-3-phenylpropanoyl]oxy-10,14,17,17-tetramethyl-11-oxo-6-oxatetracyclo[11.3.1.0^3,10.0^4,7]heptadec-13-en-2-yl]benzoate]
[1]; from 1 μM to about 20 μM
  Successful enhancer of AAV8 production (genomes or % full capsids 1.5-fold over untreated control): Successful enhancers
[1]; from about 1 μM to about 20 μM
  Increase in AAV8 titers ("Top Hits"): highest increase in AAV8 titers

## CCn1cc(-c2ccnc3[nH]c(-c4cccc(CN(C)C)c4)cc23)c(-c2ccc(NC(=O)N(C)C)cc2)n1 [Compound D, 3-(4-(4-(2-(3-((dimethylamino)methyl)phenyl)-1H-pyrrolo[2,3-b]pyridin-4-yl)-1-ethyl-1H-pyrazol-3-yl)phenyl)-1,1-dimethylurea]
[2]; Homo sapiens, 72 h, read-out: Fold increase in genomes over no enhancer control
  fold induction at 0.05 µM: 1.57 to 1.91
[1]; about 0.05 μM
  Successful enhancer of AAV8 production (genomes or % full capsids 1.5-fold over untreated control): Successful enhancers

## CC(=O)O[C@H]1C(=O)[C@@]2(C)[C@H]([C@H](OC(=O)c3ccccc3)[C@]3(O)C[C@H](OC(=O)[C@H](O)[C@@H](NC(=O)c4ccccc4)c4ccccc4)C(C)=C1C3(C)C)[C@]1(OC(C)=O)CO[C@@H]1C[C@@H]2O [Compound F, [(1S,2S,3R,4S,7R,9S,10S,12R, 15S)-4,12-diacetyloxy-15-[(2R,3S)-3-benzamido-2-hydroxy-3-phenylpropanoyl]oxy-1,9-dihydroxy-10,14,17,17-tetramethyl-11-oxo-6-oxatetracyclo[11.3.1.0^3,10.0^4,7]heptadec-13-en-2-yl]benzoate]
[1]; [3]
  Increase in AAV8 titers ("Top Hits"): highest increase in AAV8 titers
  Successful enhancer of AAV8 production (genomes or % full capsids 1.5-fold over untreated control): Successful enhancers

## CC(=O)NCC(=O)N1[C@@H]2CC[C@H]1c1ccc(Nc3ncc(C(F)(F)F)c(NC4CCC4)n3)cc12 [Compound G, N-[2-[(1R,8S)-4-[[4-(cyclobutylamino)-5-(trifluoromethyl)pyrimidin-2-yl]amino]-11-azatricyclo[6.2.1.0^2,7]undeca-2 (7),3,5-trien-11-yl]-2-oxoethyl]acetamide]
[1]; from about 0.02 μM to about 0.5 μM
  Successful enhancer of AAV8 production (genomes or % full capsids 1.5-fold over untreated control): Successful enhancers

## O=C(CCCCCCC(=O)Nc1ccccc1)NO [SAHA, suberoylanilide hydroxamic acid]
[1]; from about 0.5 μM to about 1 μM
  Successful enhancer of AAV8 production (genomes or % full capsids 1.5-fold over untreated control): Successful enhancers

## CCC(=O)[O-].[Na+] [Sodium Propionate]
[2]; 5000 μM-10000 μM
  Fold increase in genomes over no enhancer control: 1.20-1.48 fold

## CCCC(CCC)C(=O)[O-].[Na+] [Valproic Acid Sodium Salt]
[1]; from about 400 μM to about 2500 μM
  Successful enhancer of AAV8 production (genomes or % full capsids 1.5-fold over untreated control): Successful enhancers

## CC[C@]1(O)C[C@@H]2CN(CCc3c([nH]c4ccccc34)[C@@](C(=O)OC)(c3cc4c(cc3OC)N(C)[C@H]3[C@@](O)(C(=O)OC)[C@H](OC(C)=O)[C@]5(CC)C=CCN6CC[C@]43[C@@H]65)C2)C1 [Vinblastine Sulfate]
[1]; from about 2.5 μM to about 15 μM
  Successful enhancer of AAV8 production (genomes or % full capsids 1.5-fold over untreated control): Successful enhancers
